The term pIC50 denotes −log10 of the IC50, conventionally taken in molar units. Low readings indicate a high IC50, high ones a low IC50.

These results are taken from patent US7074761B1, “Peptides and production and use thereof” (Takeda Chemical Ind., Ltd., priority 1996, dated 2006).

For one assay, the target named is T1, human SSTR1 (Homo sapiens, UniProt P30872).
T1 construct: expressed in transfected cells; host or cells: CHO(dhfr-) cells, clone SSTR1-8-3, plasmid pA-1-11-SSTR1 (vector pAKKO-111)
Kind of assay: [125I]-somatostatin binding inhibition, SSTR1 CHO cell membrane fraction. Particulars: 25° C., 60 minutes. The method, then:
CHO(dhfr^−) cells (1×10^6 cells) were cultured on HAM F12 medium containing 10% fetal bovine serum in a dish with a diameter of 8 cm for 24 hours. Into these cells was introduced 10 μg of the human SSTR1 cDNA expression plasmid pA-1-11-SSTR1 obtained as described above in (2) by the calcium phosphate method (Cell Phect Transfection Kit; Pharmacia). At 24 hours after transfection, the medium was exchanged for Dulbecco's modified Eagle's medium (DMEM) containing 10% dialyzed fetal bovine serum, and cells forming a colony on this medium (namely DHFR^+ cells) were selected. Further, the cells selected were treated by the limiting dilution method for cloning from a single cell, and the somatostatin receptor protein activity was measured in the following manner. […] The [^125I] on the filter paper was measured with a γ counter. […]
(§1) The membrane fractions prepared in Reference Example 6 were each diluted to 3 μg/ml with assay buffer. […] After filtration, the radioactivity of [^125I]-somatostatin remaining on the filter paper was measured. For each test substance, the binding inhibition percentage (%) was calculated according to the formula: PBM=(B−NSB)/(B0−NSB)×100 (where PBM: percent maximum binding; B: radioactivity when the test sample is added; B0: maximum bound radioactivity; NSB: non-specifically bound radioactivity). […]

A further assay deals with T2, human SSTR4 (Homo sapiens, UniProt P31391).
T2 construct: expressed in transfected cells; host or cells: CHO(dhfr-) cells, clone SSTR4-1-2, plasmid pA-1-11-SSTR4 (vector pAKKO-111)
Kind of assay: [125I]-somatostatin binding inhibition, SSTR4 CHO cell membrane fraction. Particulars: 25° C., 60 minutes. The method, then:
CHO(dhfr^−) cells (1×10^6 cells) were cultured on HAM F12 medium containing 10% fetal bovine serum in a dish with a diameter of 8 cm for 24 hours. Into these cells was introduced 10 μg of the human SSTR4 DNA expression plasmid pA-1-11-SSTR4 obtained as described above in (2) by the calcium phosphate method (Cell Phect Transfection Kit; Pharmacia). At 24 hours after transfection, the medium was exchanged for DMEM containing 10% dialyzed fetal bovine serum, and cells forming a colony on this medium (namely DHFR^+ cells) were selected. Further, the cells selected were treated by the limiting dilution method for cloning from a single cell, and the cells thus cloned were measured for their somatostatin receptor protein expression ability by the binding assay described in Reference Example 1 (3). In this manner, a cell line with high somatostatin-binding activity, SSTR4-1-2, was selected.
The human somatostatin receptor expressing CHO cell lines SSTR1-8-3, SSTR2-HS5-9, SSTR3-15-19, SSTR4-1-2 and SSTR5-32-4 (10^9 cells each) were respectively suspended in phosphate buffered physiological saline supplemented with 5 mM EDTA (PBS-EDTA) and centrifuged. To each cell pellet was added 10 ml of cell homogenation buffer (10 mM NaHCO3, 5 mM EDTA, pH=7.5), followed by homogenation with a Polytron homogenizer. The homogenate was centrifuged at 400×g for 15 minutes, and the supernatant obtained was further centrifuged at 100,000×g for 1 hour to give a membrane fraction as a precipitate. […]
as §1

pIC50: −log10 of the molar value. Where a SMILES comes first, the peptide text is derived from it. Bridges are numbered along the chain shown (N, C = ends).

T2 sequence (P31391 whole entry): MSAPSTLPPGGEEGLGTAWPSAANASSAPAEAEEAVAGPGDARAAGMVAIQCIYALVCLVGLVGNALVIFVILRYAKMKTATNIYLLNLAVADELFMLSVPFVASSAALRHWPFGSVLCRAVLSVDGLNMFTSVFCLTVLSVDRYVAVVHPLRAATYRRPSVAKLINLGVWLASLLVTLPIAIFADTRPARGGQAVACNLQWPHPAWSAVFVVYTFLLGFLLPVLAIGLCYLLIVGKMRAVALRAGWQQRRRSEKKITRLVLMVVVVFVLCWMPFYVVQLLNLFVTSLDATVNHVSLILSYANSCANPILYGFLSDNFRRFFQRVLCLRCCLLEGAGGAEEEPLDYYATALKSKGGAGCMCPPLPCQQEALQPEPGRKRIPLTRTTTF
T1 sequence (P30872 whole entry): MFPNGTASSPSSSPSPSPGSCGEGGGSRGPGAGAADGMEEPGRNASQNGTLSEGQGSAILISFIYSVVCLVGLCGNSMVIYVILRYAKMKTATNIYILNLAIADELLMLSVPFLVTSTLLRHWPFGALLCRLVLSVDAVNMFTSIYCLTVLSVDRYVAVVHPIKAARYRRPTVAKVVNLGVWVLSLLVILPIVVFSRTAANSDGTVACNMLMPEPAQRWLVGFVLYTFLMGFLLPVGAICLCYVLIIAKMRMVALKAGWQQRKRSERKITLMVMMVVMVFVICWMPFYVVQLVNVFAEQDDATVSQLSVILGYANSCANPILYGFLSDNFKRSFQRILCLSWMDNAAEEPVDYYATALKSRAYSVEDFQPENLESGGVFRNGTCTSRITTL

Take `CSCC[C@H](N)C(=O)N1CCC[C@H]1C(=O)N[C@H]1CSSC[C@@H](C(=O)N[C@@H](CCCCN)C(=O)O)NC(=O)[C@H](CO)NC(=O)[C@H](CO)NC(=O)[C@H](Cc2ccccc2)NC(=O)[C@H]([C@@H](C)O)NC(=O)[C@H](CCCCN)NC(=O)[C@H](Cc2c[nH]c3ccccc23)NC(=O)[C@H](Cc2ccccc2)NC(=O)[C@H](Cc2ccccc2)NC(=O)[C@H](CC(N)=O)NC(=O)[C@H](CCCNC(=N)N)NC1=O` [hCS-15] (H-MPCRNFFWKTFSSCK-OH; disulfide 3-14; N-terminus and C-terminus assumed): the results for the negative logarithm of the IC50 (pIC50) on human SSTR1 and at human SSTR4 were 8.15 and 9.22, respectively.

For `CSCC[C@H](NC(=O)[C@H](CCCNC(=N)N)NC(=O)[C@@H](N)CC(=O)O)C(=O)N1CCC[C@H]1C(=O)N[C@H]1CSSC[C@@H](C(=O)N[C@@H](CCCCN)C(=O)O)NC(=O)[C@H](CO)NC(=O)[C@H](CO)NC(=O)[C@H](Cc2ccccc2)NC(=O)[C@H]([C@@H](C)O)NC(=O)[C@H](CCCCN)NC(=O)[C@H](Cc2c[nH]c3ccccc23)NC(=O)[C@H](Cc2ccccc2)NC(=O)[C@H](Cc2ccccc2)NC(=O)[C@H](CC(N)=O)NC(=O)[C@H](CCCNC(=N)N)NC1=O` [hCS-17], the pIC50 at human SSTR1 is 8.15; at human SSTR4 it was 9.30.
